Our source for the IC50 values is patent publication EP4755888A1 (ILAb Co., Ltd., priority 2023, dated 2025).

Some results are limits rather than exact numbers.

The target in the assay is PD-1/PD-L1 (Homo sapiens, UniProt Q9NZQ7). Put plainly: TR-FRET PD-1/PD-L1 binding inhibition at the molecular level (free proteins). The note with it: Tag1-PD-L1 and Tag2-PD-1 proteins, twelve concentrations from 200 nM, 2 hours at room temperature, read-out: FRET assay (IC50). In short, it runs like this: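 HTRF read-out at 665/620 nm after 2 h at room temperature. Detection used anti-Tag1 Eu cryptate plus anti-Tag2 XL665 antibodies. Tagged PD-L1 and PD-1 proteins were pre-mixed with compound across twelve […] 1:2 dilutions starting at 200 nM.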
Chain of PD-1/PD-L1 (Q9NZQ7 19-238 limits assumed): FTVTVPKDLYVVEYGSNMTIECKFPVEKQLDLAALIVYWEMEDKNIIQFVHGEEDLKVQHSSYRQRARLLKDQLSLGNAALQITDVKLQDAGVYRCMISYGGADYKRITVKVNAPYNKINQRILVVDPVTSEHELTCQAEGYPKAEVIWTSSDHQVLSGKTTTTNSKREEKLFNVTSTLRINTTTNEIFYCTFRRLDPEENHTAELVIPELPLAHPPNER
Consider `O=C(O)CN1CCn2nc(C(=O)Nc3cccc(-c4cccc(Nc5nccc6cc(CN7CC[C@@H](O)C7)cnc56)c4Cl)c3Cl)cc2C1` [Compound 324, (R)-2-(2-((2,2'-dichloro-3'-((3-((3-hydroxypyrrolidin-1-yl)methyl)-1,7-naphthyridin-8-yl)amino)-[1,1'-biphenyl]-3-yl)carbamoyl)-6,7-dihydropyrazolo[1,5-a]pyrazin-5(4H)-yl)acetic acid], for which the IC50 (commonly the point on the concentration scale where inhibition reaches its midpoint) is below 10 nM.
The figure for `O=C(Nc1cccc(-c2cccc(NC(=O)c3cc4n(n3)CCCC4N3CC[C@@H](C(=O)O)C3)c2Cl)c1Cl)c1ccc(CNCCO)cn1` (stereo partly drawn) [Compound 86, (3R)-1-(2-((2,2'-dichloro-3'-(5-(((2-hydroxyethyl)amino)methyl)picolinamido)-[1,1'-biphenyl]-3-yl)carbamoyl)-4,5,6,7-tetrahydropyrazolo[1,5-a]pyridin-4-yl)pyrrolidine-3-carboxylic acid] is below 10 nM.
Consider `CC(=O)NCCNC1CCCn2nc(C(=O)Nc3cccc(-c4cccc(NC(=O)c5cc6n(n5)CCCC6NCCNC(C)=O)c4C)c3C)cc21` (centres unmarked) [Compound 5, N,N'-(2,2'-dimethyl-[1,1'-biphenyl]-3,3'-diyl)bis(4-((2-acetamidoethyl)amino)-4,5,6,7-tetrahydropyrazolo[1,5-a]pyridine-2-carboxamide)], for which the IC50 is below 10 nM.
On to `Cc1c(NC(=O)c2cc3n(n2)CCC[C@@H]3N2CCC(O)CC2)cccc1-c1cccc(Nc2nc(C(F)F)nc3cccnc23)c1C` [Compound 287, (S)-N-(3'-((2-(difluoromethyl)pyrido[3,2-d]pyrimidin-4-yl)amino)-2,2'-dimethyl-[1,1'-biphenyl]-3-yl)-4-(4-hydroxypiperidin-1-yl)-4,5,6,7-tetrahydropyrazolo[1,5-a]pyridine-2-carboxamide], for which the IC50 was 10 to 100 nM.
The figure for `CN[C@H]1CCCn2nc(C(=O)Nc3cccc(-c4cccc(Nc5nc(C(F)F)nc6cc(CN7CC[C@@H](O)C7)cnc56)c4Cl)c3Cl)cc21` [Compound 354, (S)-N-(2,2'-dichloro-3'-((2-(difluoromethyl)-7-(((R)-3-hydroxypyrrolidin-1-yl)methyl)pyrido[3,2-d]pyrimidin-4-yl)amino)-[1,1'-biphenyl]-3-yl)-4-(methylamino)-4,5,6,7-tetrahydropyrazolo[1,5-a]pyridine-2-carboxamide] is 10 to 100 nM; for `COc1cc(C(=O)Nc2cccc(-c3cccc(NC(=O)c4cc5n(n4)CCCC5NCC(=O)O)c3Cl)c2Cl)cc(F)c1CNCC(=O)O` (centres unmarked) [Compound 191, 2-((4-((3'-(4-((carboxymethyl)amino)-4,5,6,7-tetrahydropyrazolo[1,5-a]pyridine-2-carboxamido)-2,2'-dichloro-[1,1'-biphenyl]-3-yl)carbamoyl)-2-fluoro-6-methoxybenzyl)amino)acetic acid] it is below 10 nM.
The value for `CC(C)(N[C@H]1CCCn2nc(C(=O)Nc3cccc(-c4cccc(Nc5nc(C(F)F)nc6cc(CN7CC[C@@H](O)C7)cnc56)c4Cl)c3Cl)cc21)C(=O)O` [Compound 258, 2-(((S)-2-((2,2'-dichloro-3'-((2-(difluoromethyl)-7-(((R)-3-hydroxypyrrolidin-1-yl)methyl)pyrido[3,2-d]pyrimidin-4-yl)amino)-[1,1'-biphenyl]-3-yl)carbamoyl)-4,5,6,7-tetrahydropyrazolo[1,5-a]pyridin-4-yl)amino)-2-methylpropanoic acid] was 10 to 100 nM.
With `O=C1CC[C@@H](CNCc2ccc(-c3cccc(-c4cccc(NC(=O)c5cc6n(n5)CCCC6O)c4Cl)c3Cl)cc2)N1` (stereo partly drawn) [Compound 111, N-(2,2'-dichloro-4"-(((((S)-5-oxopyrrolidin-2-yl)methyl)amino)methyl)-[1,1':3',1"-terphenyl]-3-yl)-4-hydroxy-4,5,6,7-tetrahydropyrazolo[1,5-a]pyridine-2-carboxamide], the IC50 was below 10 nM.
The figure for `CN[C@H]1CCCn2nc(C(=O)Nc3cccc(-c4cccc(Nc5nccc6cc(CN7CC[C@@H](O)C7)cnc56)c4C)c3C)cc21` [Compound 346, (S)-N-(3'-((3-(((R)-3-hydroxypyrrolidin-1-yl)methyl)-1,7-naphthyridin-8-yl)amino)-2,2'-dimethyl-[1,1'-biphenyl]-3-yl)-4-(methylamino)-4,5,6,7-tetrahydropyrazolo[1,5-a]pyridine-2-carboxamide] is below 10 nM.
On to `Cc1c(NC(=O)c2cc3n(n2)CCCC3N2CCC(O)CC2)cccc1-c1cccc(Nc2nc(C(F)F)nc3cc(CN4CC[C@@H](O)C4)cnc23)c1C` (stereo partly drawn) [Compound 135, N-(3'-((2-(difluoromethyl)-7-(((R)-3-hydroxypyrrolidin-1-yl)methyl)pyrido[3,2-d]pyrimidin-4-yl)amino)-2,2'-dimethyl-[1,1'-biphenyl]-3-yl)-4-(4-hydroxypiperidin-1-yl)-4,5,6,7-tetrahydropyrazolo[1,5-a]pyridine-2-carboxamide], for which the IC50 was 10 to 100 nM.
The figure for `O=C(Nc1cccc(-c2cccc(Nc3nccc4cc(CN5CC[C@H](O)C5)cnc34)c2Cl)c1Cl)c1cc2n(n1)CCCC2N1CCC(O)CC1` (stereo partly drawn) [Compound 97, N-(2,2'-dichloro-3'-((3-(((S)-3-hydroxypyrrolidin-1-yl)methyl)-1,7-naphthyridin-8-yl)amino)-[1,1'-biphenyl]-3-yl)-4-(4-hydroxypiperidin-1-yl)-4,5,6,7-tetrahydropyrazolo[1,5-a]pyridine-2-carboxamide] is below 10 nM; for `CC(C)(N[C@@H]1CCCn2nc(C(=O)Nc3cccc(-c4cccc(Nc5nc(C(F)(F)F)nc6cc(CN7CC[C@@H](O)C7)cnc56)c4Cl)c3Cl)cc21)C(=O)O` [Compound 341, 2-(((R)-2-((2,2'-dichloro-3'-((7-(((R)-3-hydroxypyrrolidin-1-yl)methyl)-2-(trifluoromethyl)pyrido[3,2-d]pyrimidin-4-yl)amino)-[1,1'-biphenyl]-3-yl)carbamoyl)-4,5,6,7-tetrahydropyrazolo[1,5-a]pyridin-4-yl)amino)-2-methylpropanoic acid] it is 10 to 100 nM.
`Cc1c(NC(=O)c2cc3n(n2)CCCC3O)cccc1-c1cccc(NC(=O)c2cc3n(n2)CCCC3NCCO)c1C` (centres unmarked) [Compound 3-1, 4-hydroxy-N-(3'-(4-((2-hydroxyethyl)amino)-4,5,6,7-tetrahydropyrazolo[1,5-a]pyridine-2-carboxamido)-2,2'-dimethyl-[1,1'-biphenyl]-3-yl)-4,5,6,7-tetrahydropyrazolo[1,5-a]pyridine-2-carboxamide]: the IC50 was below 10 nM.
The figure for `O=C(O)CNC1CCCn2nc(C(=O)Nc3cccc(-c4cccc(NC(=O)c5ccc(CN6CC[C@@H](O)C6)c(F)n5)c4Cl)c3Cl)cc21` (stereo partly drawn) [Compound 202, 2-((2-((2,2'-dichloro-3'-(6-fluoro-5-(((R)-3-hydroxypyrrolidin-1-yl)methyl)picolinamido)-[1,1'-biphenyl]-3-yl)carbamoyl)-4,5,6,7-tetrahydropyrazolo[1,5-a]pyridin-4-yl)amino)acetic acid] is below 10 nM.
The value for `O=C(Nc1cccc(-c2cccc(NC(=O)c3cc4n(n3)CCCC4NCCO)c2Cl)c1Cl)c1ccc(CNCCO)cn1` (centres unmarked) [Compound 83, N-(2,2'-dichloro-3'-(5-(((2-hydroxyethyl)amino)methyl)picolinamido)-[1,1'-biphenyl]-3-yl)-4-((2-hydroxyethyl)amino)-4,5,6,7-tetrahydropyrazolo[1,5-a]pyridine-2-carboxamide] was below 10 nM.
As for `Cc1c(NC(=O)c2ccc(CNCCO)cn2)cccc1-c1cccc(NC(=O)c2cc3n(n2)CCCC3NCC(=O)O)c1C` (centres unmarked) [Compound 76, 2-((2-((3'-(5-(((2-hydroxyethyl)amino)methyl)picolinamido)-2,2'-dimethyl-[1,1'-biphenyl]-3-yl)carbamoyl)-4,5,6,7-tetrahydropyrazolo[1,5-a]pyridin-4-yl)amino)acetic acid], the IC50 is below 10 nM.
The figure for `CC(=O)NCCNC1CCCn2nc(C(=O)Nc3cccc(-c4cccc(Nc5nccc6cc(CN7CC[C@@H](O)C7)cnc56)c4Cl)c3C)cc21` (stereo partly drawn) [Compound 39, 4-((2-acetamidoethyl)amino)-N-(2'-chloro-3'-((3-(((R)-3-hydroxypyrrolidin-1-yl)methyl)-1,7-naphthyridin-8-yl)amino)-2-methyl-[1,1'-biphenyl]-3-yl)-4,5,6,7-tetrahydropyrazolo[1,5-a]pyridine-2-carboxamide] is below 10 nM; for `CN[C@H]1CCCn2nc(C(=O)Nc3cccc(-c4cccc(Nc5nc(C(F)(F)F)nc6cc(CN7CC[C@@H](O)C7)cnc56)c4Cl)c3Cl)cc21` [Compound 352, (S)-N-(2,2'-dichloro-3'-((7-(((R)-3-hydroxypyrrolidin-1-yl)methyl)-2-(trifluoromethyl)pyrido[3,2-d]pyrimidin-4-yl)amino)-[1,1'-biphenyl]-3-yl)-4-(methylamino)-4,5,6,7-tetrahydropyrazolo[1,5-a]pyridine-2-carboxamide] it is 10 to 100 nM; for `COc1cc(-c2cccc(-c3cccc(NC(=O)c4cc5n(n4)CCCC5O)c3Cl)c2Cl)cc(F)c1CN1CC[C@@H](O)C1` (stereo partly drawn) [Compound 117, N-(2,2'-dichloro-3"-fluoro-4"-(((R)-3-hydroxypyrrolidin-1-yl)methyl)-5"-methoxy-[1,1':3',1"-terphenyl]-3-yl)-4-hydroxy-4,5,6,7-tetrahydropyrazolo[1,5-a]pyridine-2-carboxamide] it is 10 to 100 nM.
`COc1cc(-c2cccc(-c3cccc(NC(=O)c4cc5n(n4)CCCC5N4CC[C@@H](O)C4)c3Cl)c2Cl)cc(F)c1CN1CC[C@@H](O)C1` (stereo partly drawn) [Compound 123, N-(2,2'-dichloro-3"-fluoro-4"-(((R)-3-hydroxypyrrolidin-1-yl)methyl)-5"-methoxy-[1,1':3',1 "-terphenyl]-3-yl)-4-((R)-3-hydroxypyrrolidin-1-yl)-4,5,6,7-tetrahydropyrazolo[1,5-a]pyridine-2-carboxamide]: the IC50 was below 10 nM.
